Assay results published in PubChem BioAssay (NCI).
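Growth conditions: 96-well plates. Treatment: test compound, 48 hours, 5 concentrations. Analysis: linear interpolation between bracketing concentrations; unreached endpoints set to highest concentration. The concentration for 50% growth inhibition is given as GI50. Definition used: TGI = concentration required for complete inhibition of growth.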

Experiments:
Test in all cases: NCI anticancer screen, dose series, 48 h
OVCAR-8 ovarian = tested on: OVCAR-8 ovarian
T-47D breast = tested on: T-47D breast
SK-MEL-28 melanoma = tested on: SK-MEL-28 melanoma
KM12 colon = tested on: KM12 colon
IGROV1 ovarian = tested on: IGROV1 ovarian
CAKI-1 renal = tested on: CAKI-1 renal
SK-MEL-5 melanoma = tested on: SK-MEL-5 melanoma
M14 melanoma = tested on: M14 melanoma
NCI-H522 lung = tested on: NCI-H522 lung
HT29 colon = tested on: HT29 colon
A498 renal = tested on: A498 renal
OVCAR-3 ovarian = tested on: OVCAR-3 ovarian
SF-539 CNS = tested on: SF-539 CNS
PC-3 prostate = tested on: PC-3 prostate
U251 CNS = tested on: U251 CNS
COLO 205 colon = tested on: COLO 205 colon
HCT-116 colon = tested on: HCT-116 colon
SN12C renal = tested on: SN12C renal
UACC-62 melanoma = tested on: UACC-62 melanoma
SK-OV-3 ovarian = tested on: SK-OV-3 ovarian
SF-295 CNS = tested on: SF-295 CNS
LOX IMVI melanoma = tested on: LOX IMVI melanoma
HOP-62 NSCLC = tested on: HOP-62 NSCLC
DU-145 prostate = tested on: DU-145 prostate
SK-MEL-2 melanoma = tested on: SK-MEL-2 melanoma
HOP-92 NSCLC = tested on: HOP-92 NSCLC
SR leukemia = tested on: SR leukemia
MDA-MB-231 breast = tested on: MDA-MB-231 breast
SF-268 CNS = tested on: SF-268 CNS
MOLT-4 leukemia = tested on: MOLT-4 leukemia
MALME-3M melanoma = tested on: MALME-3M melanoma
OVCAR-4 ovarian = tested on: OVCAR-4 ovarian
OVCAR-5 ovarian = tested on: OVCAR-5 ovarian
BT-549 breast = tested on: BT-549 breast
MDA-MB-468 breast = tested on: MDA-MB-468 breast
HCT-15 colon = tested on: HCT-15 colon
UACC-257 melanoma = tested on: UACC-257 melanoma
HL-60(TB) leukemia = tested on: HL-60(TB) leukemia
MDA-MB-435 = tested on: MDA-MB-435
RXF 393 renal = tested on: RXF 393 renal
RPMI-8226 leukemia = tested on: RPMI-8226 leukemia
EKVX NSCLC = tested on: EKVX NSCLC
HCC-2998 colon = tested on: HCC-2998 colon
NCI-H226 lung = tested on: NCI-H226 lung
SNB-75 CNS = tested on: SNB-75 CNS
SW-620 colon = tested on: SW-620 colon
NCI-H460 lung = tested on: NCI-H460 lung
NCI-H23 lung = tested on: NCI-H23 lung
786-0 renal = tested on: 786-0 renal
MCF7 breast = tested on: MCF7 breast
HS 578T breast = tested on: HS 578T breast
ACHN renal = tested on: ACHN renal
CCRF-CEM leukemia = tested on: CCRF-CEM leukemia
A549 NSCLC = tested on: A549 NSCLC
TK-10 renal = tested on: TK-10 renal
K-562 leukemia = tested on: K-562 leukemia
SNB-19 CNS = tested on: SNB-19 CNS
UO-31 renal = tested on: UO-31 renal

## N#CC1=C(c2cccs2)Nc2c(c(-c3ccccc3)nn2-c2ccccc2)C12C(=O)Nc1ccc(Cl)cc12 (stereo unspecified)
OVCAR-8 ovarian
  GI50: 4.92 µM
  TGI: 17.9 µM
T-47D breast
  GI50: 5.84 µM
  TGI: 33.8 µM
SK-MEL-28 melanoma
  GI50: 11.1 µM
  TGI: 23.2 µM
KM12 colon
  GI50: 3.66 µM
  TGI: 13.6 µM
IGROV1 ovarian
  GI50: 4.93 µM
  TGI: 17.7 µM
CAKI-1 renal
  GI50: 5.26 µM
  TGI: 18.6 µM
SK-MEL-5 melanoma
  GI50: 10.8 µM
  TGI: 23.1 µM
M14 melanoma
  GI50: 4.94 µM
  TGI: 18.4 µM
NCI-H522 lung
  GI50: 2.6 µM
  TGI: 9.87 µM
HT29 colon
  GI50: 4.82 µM
  TGI: 17.1 µM
A498 renal
  GI50: 16.8 µM
  TGI: 31.2 µM
OVCAR-3 ovarian
  GI50: 6.88 µM
  TGI: 19.7 µM
SF-539 CNS
  GI50: 4.77 µM
  TGI: 17 µM
PC-3 prostate
  GI50: 3.18 µM
  TGI: 15.2 µM
U251 CNS
  GI50: 3.88 µM
  TGI: 14.4 µM
COLO 205 colon
  GI50: 14.3 µM
  TGI: 29.5 µM
HCT-116 colon
  GI50: 3.95 µM
  TGI: 16.3 µM
SN12C renal
  GI50: 4.46 µM
  TGI: 16.8 µM
UACC-62 melanoma
  GI50: 4.13 µM
  TGI: 16.9 µM
SK-OV-3 ovarian
  GI50: 10.6 µM
  TGI: 23.6 µM
SF-295 CNS
  GI50: 3.74 µM
  TGI: 15.9 µM
LOX IMVI melanoma
  GI50: 6.46 µM
  TGI: 20.4 µM
HOP-62 NSCLC
  GI50: 7.02 µM
  TGI: 21.4 µM
DU-145 prostate
  GI50: 13.9 µM
  TGI: 30.3 µM
SK-MEL-2 melanoma
  GI50: 3.97 µM
  TGI: 14.6 µM
HOP-92 NSCLC
  GI50: 2.47 µM
  TGI: 7.94 µM
SR leukemia
  GI50: 4.93 µM
  TGI: 36.3 µM
MDA-MB-231 breast
  GI50: 4.52 µM
  TGI: 16.9 µM
SF-268 CNS
  GI50: 3.52 µM
  TGI: 19 µM
MOLT-4 leukemia
  GI50: 4.95 µM
  TGI: 23.4 µM
MALME-3M melanoma
  GI50: 14.3 µM
  TGI: 27.4 µM
OVCAR-4 ovarian
  GI50: 4.77 µM
  TGI: 21.1 µM
OVCAR-5 ovarian
  GI50: 7.31 µM
  TGI: 20.9 µM
BT-549 breast
  GI50: 3.02 µM
  TGI: 13.1 µM
MDA-MB-468 breast
  GI50: 4.45 µM
  TGI: 16.6 µM
HCT-15 colon
  GI50: 3.74 µM
  TGI: 14.1 µM
UACC-257 melanoma
  GI50: 12.9 µM
  TGI: 25.8 µM
HL-60(TB) leukemia
  GI50: 3.51 µM
  TGI: 11.7 µM
MDA-MB-435
  GI50: 11.1 µM
  TGI: 23.9 µM
RXF 393 renal
  GI50: 3.14 µM
  TGI: 13.3 µM
RPMI-8226 leukemia
  GI50: 4.3 µM
  TGI: 27.5 µM
EKVX NSCLC
  GI50: 4.33 µM
  TGI: 18 µM
HCC-2998 colon
  GI50: 7.13 µM
  TGI: 19.8 µM
NCI-H226 lung
  GI50: 11.6 µM
  TGI: 28.2 µM
SNB-75 CNS
  GI50: 2.6 µM
  TGI: 13 µM
SW-620 colon
  GI50: 4.56 µM
  TGI: 16.6 µM
NCI-H460 lung
  GI50: 4.07 µM
  TGI: 14.1 µM
NCI-H23 lung
  GI50: 5.57 µM
  TGI: 18.2 µM
786-0 renal
  GI50: 6.43 µM
  TGI: 20.6 µM
MCF7 breast
  GI50: 4.95 µM
  TGI: 19.4 µM
HS 578T breast
  GI50: 3.22 µM
  TGI: 18.6 µM
ACHN renal
  GI50: 4.05 µM
  TGI: 14.8 µM
CCRF-CEM leukemia
  GI50: 3.35 µM
  TGI: 20.7 µM
A549 NSCLC
  GI50: 4.12 µM
  TGI: 15.9 µM
TK-10 renal
  GI50: 5.81 µM
  TGI: 20.5 µM
K-562 leukemia
  GI50: 4.46 µM
  TGI: 34.1 µM
SNB-19 CNS
  GI50: 3.12 µM
  TGI: 14.2 µM
UO-31 renal
  GI50: 2.54 µM
  TGI: 12.2 µM
